Details of data set [1]: method as in PMID 11488257, PMID 22103329. To be noted: patients treated with these medications; cited from earlier work.
The target in data set [2] is T1, D2 receptor (Rattus norvegicus, UniProt P61169).
T1 construct: The prefrontal cortex, striatum and hypothalamus were homogenized in about 6 volumes of ice-cold buffer; from tissue; host or cells: rat striatum membrane homogenate
Briefly: [3H]-Spiperone radioligand binding assay, rat striatum membrane homogenate. Also noted: species or system Sprague Dawley rats. To be noted: read-out: Ki ± SD D2.

In data set [3] the target is T2, 5HT2A receptor (Rattus norvegicus, UniProt P14842).
T2 construct: The prefrontal cortex, striatum and hypothalamus were homogenized in about 6 volumes of ice-cold buffer; from tissue; host or cells: rat prefrontal cortex membrane homogenate
T2 sequence (P14842 whole entry): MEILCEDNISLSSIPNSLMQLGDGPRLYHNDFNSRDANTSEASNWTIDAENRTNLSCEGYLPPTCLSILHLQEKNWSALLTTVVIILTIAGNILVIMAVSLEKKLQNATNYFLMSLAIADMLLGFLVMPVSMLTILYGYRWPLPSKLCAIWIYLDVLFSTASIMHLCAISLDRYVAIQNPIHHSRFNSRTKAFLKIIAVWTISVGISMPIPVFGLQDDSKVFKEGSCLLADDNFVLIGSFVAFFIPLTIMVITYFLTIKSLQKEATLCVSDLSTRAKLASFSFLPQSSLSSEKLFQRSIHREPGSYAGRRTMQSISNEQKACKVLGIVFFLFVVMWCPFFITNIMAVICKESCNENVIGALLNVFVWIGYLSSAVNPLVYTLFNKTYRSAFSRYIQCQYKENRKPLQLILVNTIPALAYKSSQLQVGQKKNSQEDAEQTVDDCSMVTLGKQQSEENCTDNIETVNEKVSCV
Nature of the data set: [3H]-Ketanserine radioligand binding assay, rat prefrontal cortex membrane homogenate. Further details: species or system Sprague Dawley rats. To be noted: for pKi ratio 5HT2A/D2: ratio of pKi at 5HT2A to pKi at D2, rat tissue homogenate; for Ki: read-out: Ki ± SD 5HT2A.

Data set [4] has as its target T3, H1 receptor (Rattus norvegicus, UniProt P31390).
T3 construct: The prefrontal cortex, striatum and hypothalamus were homogenized in about 6 volumes of ice-cold buffer; from tissue; host or cells: rat hypothalamus membrane homogenate
Nature of the data set: [3H]-Pyrilamine radioligand binding assay, rat hypothalamus membrane homogenate. Also noted: species or system Sprague Dawley rats. To be noted: read-out: Ki ± SD H1.

For data set [5], the target named is D2 receptor. To be noted: read-out: Ki D2 receptor; cited from earlier work.

The text below walks through data of publication PMC3485633 (BMC Pharmacology, 2012).

For orientation: Ki means a dissociation constant, usually derived from enzyme kinetics or from competition with a known ligand.

T3 sequence (P31390 whole entry): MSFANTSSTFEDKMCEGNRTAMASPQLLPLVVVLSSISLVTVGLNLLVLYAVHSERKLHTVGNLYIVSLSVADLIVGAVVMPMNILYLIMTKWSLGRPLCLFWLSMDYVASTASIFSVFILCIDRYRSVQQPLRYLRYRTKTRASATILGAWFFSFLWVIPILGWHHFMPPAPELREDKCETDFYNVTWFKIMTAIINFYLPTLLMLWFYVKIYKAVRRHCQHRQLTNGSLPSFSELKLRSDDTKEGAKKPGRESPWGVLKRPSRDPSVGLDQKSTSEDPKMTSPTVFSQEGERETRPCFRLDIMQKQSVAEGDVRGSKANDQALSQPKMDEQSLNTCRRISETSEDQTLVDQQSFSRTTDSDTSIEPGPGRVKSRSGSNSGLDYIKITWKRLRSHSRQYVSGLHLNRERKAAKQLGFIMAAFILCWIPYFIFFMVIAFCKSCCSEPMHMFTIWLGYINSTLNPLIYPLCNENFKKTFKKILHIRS
T1 sequence (P61169 whole entry): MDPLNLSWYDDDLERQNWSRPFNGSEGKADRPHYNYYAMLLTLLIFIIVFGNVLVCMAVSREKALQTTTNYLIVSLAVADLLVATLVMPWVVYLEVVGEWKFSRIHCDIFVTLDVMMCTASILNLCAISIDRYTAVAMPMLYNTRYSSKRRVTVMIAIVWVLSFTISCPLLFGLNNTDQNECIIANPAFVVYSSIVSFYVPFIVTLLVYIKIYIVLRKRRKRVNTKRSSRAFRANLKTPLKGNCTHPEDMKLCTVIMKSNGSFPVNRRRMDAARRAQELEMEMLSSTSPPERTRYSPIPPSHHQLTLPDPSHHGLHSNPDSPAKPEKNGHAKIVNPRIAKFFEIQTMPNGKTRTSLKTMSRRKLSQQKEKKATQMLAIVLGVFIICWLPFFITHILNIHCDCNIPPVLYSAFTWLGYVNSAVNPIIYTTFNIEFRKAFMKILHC

Turning to `Clc1ccc2c(c1)C(N1CCNCC1)=Nc1ccccc1O2` [amoxapine], the “weight change in treated patients” value in data set [1] is reported as “neither weight gain nor weight loss”.

On to `CCc1cc2c(s1)Nc1ccccc1N=C2N1CCCN(C)CC1` [Compound 8b, 2-ethyl-4-(4′-methyl-1′,4′-diazepan-1′-yl)-10H-benzo[b]thieno[2,3-e] [1,4]diazepine], for which the Ki in data set [2] is 791 ± 83.2 nM; in data set [3], 81.2 ± 2.43 nM; in data set [4], 13.6 ± 2.68 nM. Besides, the “pKi ratio 5HT2A/D2” value in data set [3] worked out at 1.16.

For the molecule `CCN1CCC[C@H]1CNC(=O)c1c(OC)ccc(Br)c1OC` [remoxipride], the Ki in data set [5] was 800 nM.

For the molecule `CCc1cc2c(s1)Nc1ccccc1N=C2N1CCN(C)CC1` [Compound 8c, 2-ethyl-4-(4′-methylpiperazin-1′-yl)-10Hbenzo[b]thieno[2,3-e][1,4]diazepine], the Ki in data set [2] came to 54.5 ± 12.1 nM; in data set [3], 3.7 ± 0.74 nM; in data set [4], 1.95 ± 0.33 nM. Also, in data set [3], the “pKi ratio 5HT2A/D2” value is listed as 1.16.

On to `CN1CCN(C2=Nc3ccccc3Oc3ccc(Cl)cc32)CC1` [loxapine], for which the “weight change in treated patients” value in data set [1] was “neither weight gain nor weight loss”.

`Cc1cc2c(s1)Nc1ccccc1N=C2N1CCCN(C)CC1` [Compound 8a, 2-methyl-4-(4′-methyl-1′,4′-diazepan-1′-yl)-10H-benzo[b]thieno[2,3-e] [1,4]diazepine]: the Ki in data set [2] was found to be 3940 ± 437 nM; in data set [3], 787 ± 29.8 nM; in data set [4] it was 33.5 ± 7.39 nM.
